Assay results: patent US20260356819A1, “OXOISOINDOLINYL-SUBSTITUTED […] DERIVATIVE AND USE THEREOF” (GLUETACS THERAPEUTICS (SHANGHAI) CO., LTD., priority 2023, published 2026)

Tests used:
Format in all cases: cell-based
Conditions in all cases: compounds at 50 nM and 500 nM
WEE1 = molecular target: T1, WEE1 (Homo sapiens, UniProt P30291+Q96SW2); test: Western blot degradation of WEE1 in hPBMCs (24 h)
T1 construct: The supernatant was aspirated as the extracted total cell protein; endogenous in cells; host or cells: human peripheral blood mononuclear cells (hPBMCs)
T1 sequence (P30291 whole entry): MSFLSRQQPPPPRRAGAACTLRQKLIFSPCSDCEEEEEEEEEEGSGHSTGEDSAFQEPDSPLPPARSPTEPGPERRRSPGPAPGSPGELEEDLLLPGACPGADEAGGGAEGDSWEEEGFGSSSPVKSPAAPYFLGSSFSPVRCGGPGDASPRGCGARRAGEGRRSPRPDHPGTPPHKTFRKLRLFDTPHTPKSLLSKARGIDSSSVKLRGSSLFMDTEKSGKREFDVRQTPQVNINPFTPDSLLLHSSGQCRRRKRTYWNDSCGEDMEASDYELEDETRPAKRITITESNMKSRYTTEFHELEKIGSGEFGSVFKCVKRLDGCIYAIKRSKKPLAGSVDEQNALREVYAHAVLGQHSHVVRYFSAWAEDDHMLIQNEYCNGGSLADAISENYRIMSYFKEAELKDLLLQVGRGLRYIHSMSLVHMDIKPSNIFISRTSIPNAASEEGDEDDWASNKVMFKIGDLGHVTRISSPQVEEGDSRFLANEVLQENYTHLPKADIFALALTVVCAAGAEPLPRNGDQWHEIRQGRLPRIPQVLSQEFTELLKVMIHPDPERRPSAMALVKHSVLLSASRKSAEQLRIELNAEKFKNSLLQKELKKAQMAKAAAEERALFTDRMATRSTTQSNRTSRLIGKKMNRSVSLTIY
T1 sequence (Q96SW2 whole entry): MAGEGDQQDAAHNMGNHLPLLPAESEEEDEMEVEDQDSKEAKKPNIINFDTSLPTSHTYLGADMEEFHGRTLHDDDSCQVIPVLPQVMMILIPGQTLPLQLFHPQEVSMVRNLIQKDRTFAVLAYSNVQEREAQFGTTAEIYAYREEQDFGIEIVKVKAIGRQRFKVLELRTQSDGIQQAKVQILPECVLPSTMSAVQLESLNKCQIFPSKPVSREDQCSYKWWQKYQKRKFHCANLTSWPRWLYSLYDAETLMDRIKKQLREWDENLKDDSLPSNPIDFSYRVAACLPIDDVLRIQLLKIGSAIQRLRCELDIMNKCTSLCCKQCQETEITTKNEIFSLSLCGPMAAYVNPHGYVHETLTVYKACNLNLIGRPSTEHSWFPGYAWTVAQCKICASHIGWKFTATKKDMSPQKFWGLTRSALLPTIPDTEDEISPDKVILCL
T1 sequence (Q16531 whole entry partner): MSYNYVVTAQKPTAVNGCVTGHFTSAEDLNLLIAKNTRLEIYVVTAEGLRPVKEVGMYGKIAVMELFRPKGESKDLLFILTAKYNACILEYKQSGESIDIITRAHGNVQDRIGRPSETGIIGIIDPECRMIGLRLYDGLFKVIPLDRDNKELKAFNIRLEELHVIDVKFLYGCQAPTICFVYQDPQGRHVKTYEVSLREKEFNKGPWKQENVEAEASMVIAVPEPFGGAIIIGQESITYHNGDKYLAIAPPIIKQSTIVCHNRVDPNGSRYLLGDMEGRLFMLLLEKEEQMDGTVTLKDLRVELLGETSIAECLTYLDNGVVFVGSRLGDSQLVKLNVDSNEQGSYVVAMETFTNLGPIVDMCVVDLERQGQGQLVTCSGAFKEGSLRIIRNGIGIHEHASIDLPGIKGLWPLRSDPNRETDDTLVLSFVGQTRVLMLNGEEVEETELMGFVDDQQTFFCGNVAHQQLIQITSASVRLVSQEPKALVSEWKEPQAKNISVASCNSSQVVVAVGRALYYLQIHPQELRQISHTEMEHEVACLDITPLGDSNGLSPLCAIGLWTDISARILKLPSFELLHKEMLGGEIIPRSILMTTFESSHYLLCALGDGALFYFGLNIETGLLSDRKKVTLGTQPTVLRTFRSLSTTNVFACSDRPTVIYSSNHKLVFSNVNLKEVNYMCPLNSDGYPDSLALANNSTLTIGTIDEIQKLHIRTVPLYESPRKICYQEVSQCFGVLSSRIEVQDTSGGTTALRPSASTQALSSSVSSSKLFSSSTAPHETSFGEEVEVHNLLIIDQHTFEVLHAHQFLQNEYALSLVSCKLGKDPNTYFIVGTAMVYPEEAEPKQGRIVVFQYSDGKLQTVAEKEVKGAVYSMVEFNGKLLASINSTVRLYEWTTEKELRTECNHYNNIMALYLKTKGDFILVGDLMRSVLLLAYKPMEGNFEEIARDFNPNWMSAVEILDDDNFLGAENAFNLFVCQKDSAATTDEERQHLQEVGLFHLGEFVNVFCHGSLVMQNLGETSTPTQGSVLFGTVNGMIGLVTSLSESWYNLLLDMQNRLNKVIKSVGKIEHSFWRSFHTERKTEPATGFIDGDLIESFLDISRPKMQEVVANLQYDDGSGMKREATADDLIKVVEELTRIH
Procedure: (§1) Conventional Western blot assay was performed to evaluate the effects of the compounds of the present disclosure on the expression of target proteins in cells. • (1) Cell Seeding and Protein Harvesting: Human peripheral blood mononuclear cells (hPBMCs) at a density of 1×10^6 cells/mL were thawed according to the PBMC Recovery Protocol (Milecell Biotechnologies Inc, Shanghai). The cells were then treated with the compounds of the present disclosure (including the compounds listed in Table 1, and the Examples 1-498 compounds) at concentrations of 50 nM and 500 nM. Controls included a negative control (DMSO) and a positive control (the commercial immunomodulatory drug lenalidomide), both processed following the identical experimental protocol as the compounds of the present disclosure. After 24 hours of compounds treatment, cells were harvested and lysed in RIPA protein lysate containing protease inhibitors on ice for 30 min, followed by centrifugation. The supernatant was aspirated as the extracted total cell protein. The protein concentration of the supernatant was determined using the conventional BCA (Bicinchoninic Acid) assay. • (2) To the collected supernatant, 5×SDS sample loading buffer was added, followed by denaturation at 95 °C for 5 minutes. The denatured samples were then separated by SDS-PAGE electrophoresis on a polyacrylamide gel. Proteins were transferred to a nitrocellulose membrane (0.45 μm NC membrane), blocked with blocking buffer at room temperature for 1 hour, and subjected to antibody incubation and development procedures according to the antibody manufacturer's instructions (Cell Signaling Technology).
(§2) Half-Maximal Degradation Concentration value (the drug concentration required for degrading proteins by 50%, abbreviated as DC50) reads method: comparing the grayscale values of Western blot bands from drug-treated samples with those from blank DMSO-treated controls, and identifying the drug concentration range at which the grayscale value is half that of the DMSO-treated control bands.
(§3) DC50 values can be calculated using ImageJ software to measure grayscale values of Western blot bands from drug-treated samples. The concentration-response curve is fitted to estimate the drug concentration corresponding to half the grayscale value.
(§4) Target protein remaining (%) refers to the percentage of target protein remaining in cells after treatment with protein degrader compounds.
(§5) Calculation method for target protein remaining (%): Use ImageJ software to measure grayscale values of Western blot bands from drug (protein degrader)-treated samples. The grayscale value of drug-treated bands is divided by that of internal control protein bands, and the resulting quotient is normalized to obtain the relative percentage of remaining target protein after protein degrader treatment.
(§6) Target protein degradation rate (%)=1−target protein remaining (%).

IKZF1 = molecular target: T2, IKZF1 (Homo sapiens, UniProt Q13422+Q96SW2); test: Western blot degradation of IKZF1 in hPBMCs (24 h)
T2 construct: The supernatant was aspirated as the extracted total cell protein; endogenous in cells; host or cells: human peripheral blood mononuclear cells (hPBMCs)
Procedure: as §1, §2, §3, §4, §5, §6

IKZF2 = molecular target: T3, IKZF2 (Homo sapiens, UniProt Q96SW2+Q9UKS7); test: Western blot degradation of IKZF2 in hPBMCs (24 h)
T3 construct: The supernatant was aspirated as the extracted total cell protein; endogenous in cells; host or cells: human peripheral blood mononuclear cells (hPBMCs)
T3 sequence (Q9UKS7 whole entry): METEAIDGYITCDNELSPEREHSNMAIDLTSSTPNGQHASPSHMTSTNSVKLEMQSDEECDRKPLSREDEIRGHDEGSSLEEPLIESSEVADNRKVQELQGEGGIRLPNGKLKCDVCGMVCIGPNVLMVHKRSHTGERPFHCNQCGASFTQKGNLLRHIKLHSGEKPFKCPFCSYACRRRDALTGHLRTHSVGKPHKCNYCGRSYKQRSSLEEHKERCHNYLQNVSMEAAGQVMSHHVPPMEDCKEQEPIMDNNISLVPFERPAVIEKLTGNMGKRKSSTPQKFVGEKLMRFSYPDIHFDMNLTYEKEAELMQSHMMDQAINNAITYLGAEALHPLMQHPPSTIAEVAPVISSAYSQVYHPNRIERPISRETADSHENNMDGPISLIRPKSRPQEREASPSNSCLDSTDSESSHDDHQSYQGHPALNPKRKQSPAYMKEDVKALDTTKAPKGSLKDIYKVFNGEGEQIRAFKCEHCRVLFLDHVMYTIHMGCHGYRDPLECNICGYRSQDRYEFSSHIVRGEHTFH
T3 sequence (Q96SW2 whole entry): as the sequence (Q96SW2 whole entry) above
T3 sequence (Q16531 whole entry partner): as the sequence (Q16531 whole entry partner) above
Procedure: as §1, §2, §3, §4, §5, §6

IKZF3 = molecular target: T4, IKZF3 (Homo sapiens, UniProt Q96SW2+Q9UKT9); test: Western blot degradation of IKZF3 in hPBMCs (24 h)
T4 construct: The supernatant was aspirated as the extracted total cell protein; endogenous in cells; host or cells: human peripheral blood mononuclear cells (hPBMCs)
T4 sequence (Q9UKT9 whole entry): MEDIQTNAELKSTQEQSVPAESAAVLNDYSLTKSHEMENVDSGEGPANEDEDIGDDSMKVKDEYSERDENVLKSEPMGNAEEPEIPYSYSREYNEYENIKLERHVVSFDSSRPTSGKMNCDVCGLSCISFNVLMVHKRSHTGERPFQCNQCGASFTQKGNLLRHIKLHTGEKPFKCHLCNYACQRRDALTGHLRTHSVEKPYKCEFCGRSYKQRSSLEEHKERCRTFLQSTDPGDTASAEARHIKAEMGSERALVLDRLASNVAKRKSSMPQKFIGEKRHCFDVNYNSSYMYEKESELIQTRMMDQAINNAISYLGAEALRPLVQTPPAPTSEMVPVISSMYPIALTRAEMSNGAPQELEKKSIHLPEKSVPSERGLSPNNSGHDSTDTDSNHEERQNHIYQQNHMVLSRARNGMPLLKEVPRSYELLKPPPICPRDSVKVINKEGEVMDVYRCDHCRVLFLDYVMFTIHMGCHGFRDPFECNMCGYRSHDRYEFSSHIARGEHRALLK
T4 sequence (Q96SW2 whole entry): as the sequence (Q96SW2 whole entry) above
T4 sequence (Q16531 whole entry partner): as the sequence (Q16531 whole entry partner) above
Procedure: as §1, §2, §3, §4, §5, §6

CK1α = molecular target: T5, CK1α (Homo sapiens, UniProt P48729+Q96SW2); test: Western blot degradation of CK1α in hPBMCs (24 h)
T5 construct: The supernatant was aspirated as the extracted total cell protein; endogenous in cells; host or cells: human peripheral blood mononuclear cells (hPBMCs)
T5 sequence (P48729 whole entry): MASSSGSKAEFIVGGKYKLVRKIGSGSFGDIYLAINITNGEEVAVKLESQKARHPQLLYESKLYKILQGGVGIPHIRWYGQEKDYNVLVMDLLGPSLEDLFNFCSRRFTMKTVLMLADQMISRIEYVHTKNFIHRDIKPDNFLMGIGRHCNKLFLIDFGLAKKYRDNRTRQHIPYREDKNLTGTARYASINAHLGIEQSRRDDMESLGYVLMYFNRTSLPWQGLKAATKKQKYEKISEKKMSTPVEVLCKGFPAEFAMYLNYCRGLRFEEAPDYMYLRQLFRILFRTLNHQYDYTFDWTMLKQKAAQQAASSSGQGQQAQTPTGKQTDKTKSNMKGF
T5 sequence (Q96SW2 whole entry): as the sequence (Q96SW2 whole entry) above
T5 sequence (Q16531 whole entry partner): as the sequence (Q16531 whole entry partner) above
Procedure: as §1, §2, §3, §4, §5, §6

GSPT1 = molecular target: T6, GSPT1 (Homo sapiens, UniProt P15170+Q96SW2); test: Western blot degradation of GSPT1 in hPBMCs (24 h)
T6 construct: The supernatant was aspirated as the extracted total cell protein; endogenous in cells; host or cells: human peripheral blood mononuclear cells (hPBMCs)
T6 sequence (P15170 whole entry): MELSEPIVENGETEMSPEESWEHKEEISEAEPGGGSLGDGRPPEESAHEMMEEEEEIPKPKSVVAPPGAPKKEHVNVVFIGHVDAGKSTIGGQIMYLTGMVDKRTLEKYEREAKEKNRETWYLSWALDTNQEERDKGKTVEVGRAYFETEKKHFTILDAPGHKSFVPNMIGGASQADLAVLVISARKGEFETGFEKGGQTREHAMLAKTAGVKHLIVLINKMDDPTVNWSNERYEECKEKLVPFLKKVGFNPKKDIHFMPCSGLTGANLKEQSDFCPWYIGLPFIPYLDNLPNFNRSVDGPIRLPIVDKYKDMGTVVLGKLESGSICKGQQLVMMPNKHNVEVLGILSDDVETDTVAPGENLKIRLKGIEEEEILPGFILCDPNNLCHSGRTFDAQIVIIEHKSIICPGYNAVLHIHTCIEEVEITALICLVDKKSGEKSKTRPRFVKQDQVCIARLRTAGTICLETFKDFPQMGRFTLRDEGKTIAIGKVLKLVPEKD
T6 sequence (Q96SW2 whole entry): as the sequence (Q96SW2 whole entry) above
T6 sequence (Q16531 whole entry partner): as the sequence (Q16531 whole entry partner) above
Procedure: as §1, §2, §3, §4, §5, §6

| Compound | WEE1 substrate protein remaining % (WEE1) | IKZF1 substrate protein remaining % (IKZF1) | IKZF2 substrate protein remaining % (IKZF2) | IKZF3 substrate protein remaining % (IKZF3) | CK1α substrate protein remaining % (CK1α) | GSPT1 substrate protein remaining % (GSPT1) |
| --- | --- | --- | --- | --- | --- | --- |
| O=C1CCN(N2C(=O)c3ccc(CN4CCN(c5cccc(Cl)c5Cl)CC4)cc3C2=O)C(=O)N1 [GT-04854, 5-((4-(2,3-dichlorophenyl)piperazin-1-yl)methyl)-2-(2,4-dioxotetrahydropyrimidin-1(2H)-yl)isoindoline-1,3-dione] | A (0% ≤ substrate protein remaining % ≤80%) | A (0% ≤ substrate protein remaining % ≤80%) | A (0% ≤ substrate protein remaining % ≤80%) | B (80%< substrate protein remaining % ≤100%) | B (80%< substrate protein remaining % ≤100%) | A (0% ≤ substrate protein remaining % ≤80%) |
| O=C1CCN(N2Cc3cc(CN4CCC(c5noc6cc(F)ccc56)CC4)ccc3C2=O)C(=O)N1 [GT-04864, 1-(5-((4-(6-fluorobenzo[d]isoxazol-3-yl)piperidin-1-yl)methyl)-1-oxoisoindolin-2-yl)dihydropyrimidine-2,4(1H,3H)-dione] | B (80%< substrate protein remaining % ≤100%) | A (0% ≤ substrate protein remaining % ≤80%) | B (80%< substrate protein remaining % ≤100%) | B (80%< substrate protein remaining % ≤100%) | B (80%< substrate protein remaining % ≤100%) | A (0% ≤ substrate protein remaining % ≤80%) |
| O=C1CCN(N2Cc3cc(CN4CCN(c5nsc6ccccc56)CC4)ccc3C2=O)C(=O)N1 [GT-04865, 1-(5-((4-(benzo[d]isothiazol-3-yl)piperazin-1-yl)methyl)-1-oxoisoindolin-2-yl)dihydropyrimidine-2,4(1H,3H)-dione] | B (80%< substrate protein remaining % ≤100%) | A (0% ≤ substrate protein remaining % ≤80%) | B (80%< substrate protein remaining % ≤100%) | B (80%< substrate protein remaining % ≤100%) | B (80%< substrate protein remaining % ≤100%) | A (0% ≤ substrate protein remaining % ≤80%) |
| O=C1CCN(N2Cc3cc(CN4CCN(C(c5ccccc5)c5ccncc5)CC4)ccc3C2=O)C(=O)N1 (stereo not drawn) [GT-04891, 1-(1-oxo-5-((4-(phenyl(pyridin-4-yl)methyl)piperazin-1-yl)methyl)isoindolin-2-yl)dihydropyrimidine-2,4(1H,3H)-dione] | B (80%< substrate protein remaining % ≤100%) | A (0% ≤ substrate protein remaining % ≤80%) | A (0% ≤ substrate protein remaining % ≤80%) | B (80%< substrate protein remaining % ≤100%) | B (80%< substrate protein remaining % ≤100%) | A (0% ≤ substrate protein remaining % ≤80%) |
| O=C1CCN(N2Cc3cc(CN4CCN(C(c5ccc(Cl)cc5)c5ccc(Cl)cc5)CC4)ccc3C2=O)C(=O)N1 [GT-04895, 1-(5-((4-(bis(4-chlorophenyl)methyl)piperazin-1-yl)methyl)-1-oxoisoindolin-2-yl)dihydropyrimidine-2,4(1H,3H)-dione] | B (80%< substrate protein remaining % ≤100%) | A (0% ≤ substrate protein remaining % ≤80%) | A (0% ≤ substrate protein remaining % ≤80%) | B (80%< substrate protein remaining % ≤100%) | B (80%< substrate protein remaining % ≤100%) | A (0% ≤ substrate protein remaining % ≤80%) |
| O=C1CCN(N2Cc3cc(CN4C[C@@H]5C[C@H]4CN5C(c4ccccc4)c4ccccc4)ccc3C2=O)C(=O)N1 [GT-04938, 1-(5-(((1S,4S)-5-benzhydryl-2,5-diazabicyclo[2.2.1]heptan-2-yl)methyl)-1-oxoisoindolin-2-yl)dihydropyrimidine-2,4(1H,3H)-dione] | A (0% ≤ substrate protein remaining % ≤80%) | B (80%< substrate protein remaining % ≤100%) | A (0% ≤ substrate protein remaining % ≤80%) | B (80%< substrate protein remaining % ≤100%) | B (80%< substrate protein remaining % ≤100%) | A (0% ≤ substrate protein remaining % ≤80%) |
| O=C1CCN(N2Cc3cc(CN4CCN(c5cccs5)CC4)ccc3C2=O)C(=O)N1 [GT-05073, 1-(1-oxo-5-((4-(thiophen-2-yl)piperazin-1-yl)methyl)isoindolin-2-yl)dihydropyrimidine-2,4(1H,3H)-dione] | B (80%< substrate protein remaining % ≤100%) | B (80%< substrate protein remaining % ≤100%) | B (80%< substrate protein remaining % ≤100%) | A (0% ≤ substrate protein remaining % ≤80%) | B (80%< substrate protein remaining % ≤100%) | B (80%< substrate protein remaining % ≤100%) |
| Cc1ccc(N2CCN(Cc3ccc4c(c3)CN(N3CCC(=O)NC3=O)C4=O)CC2)s1 [GT-05083, 1-(5-((4-(5-methylthiophen-2-yl)piperazin-1-yl)methyl)-1-oxoisoindolin-2-yl)dihydropyrimidine-2,4(1H,3H)-dione] | B (80%< substrate protein remaining % ≤100%) | B (80%< substrate protein remaining % ≤100%) | A (0% ≤ substrate protein remaining % ≤80%) | B (80%< substrate protein remaining % ≤100%) | B (80%< substrate protein remaining % ≤100%) | B (80%< substrate protein remaining % ≤100%) |
| Cc1ccsc1N1CCN(Cc2ccc3c(c2)CN(N2CCC(=O)NC2=O)C3=O)CC1 [GT-05084, 1-(5-((4-(3-methylthiophen-2-yl)piperazin-1-yl)methyl)-1-oxoisoindolin-2-yl)dihydropyrimidine-2,4(1H,3H)-dione] | B (80%< substrate protein remaining % ≤100%) | B (80%< substrate protein remaining % ≤100%) | A (0% ≤ substrate protein remaining % ≤80%) | B (80%< substrate protein remaining % ≤100%) | B (80%< substrate protein remaining % ≤100%) | B (80%< substrate protein remaining % ≤100%) |
| Cc1cc(N2CCN(Cc3ccc4c(c3)CN(N3CCC(=O)NC3=O)C4=O)CC2)cs1 [GT-05087, 1-(5-((4-(5-methylthiophen-3-yl)piperazin-1-yl)methyl)-1-oxoisoindolin-2-yl)dihydropyrimidine-2,4(1H,3H)-dione] | B (80%< substrate protein remaining % ≤100%) | B (80%< substrate protein remaining % ≤100%) | B (80%< substrate protein remaining % ≤100%) | B (80%< substrate protein remaining % ≤100%) | B (80%< substrate protein remaining % ≤100%) | A (0% ≤ substrate protein remaining % ≤80%) |
| Cc1cccc(N2CCN(Cc3ccc4c(c3)CN(N3CCC(=O)NC3=O)C4=O)CC2)n1 [GT-05125, 1-(5-((4-(6-methylpyridin-2-yl)piperazin-1-yl)methyl)-1-oxoisoindolin-2-yl)dihydropyrimidine-2,4(1H,3H)-dione] | A (0% ≤ substrate protein remaining % ≤80%) | A (0% ≤ substrate protein remaining % ≤80%) | B (80%< substrate protein remaining % ≤100%) | A (0% ≤ substrate protein remaining % ≤80%) | A (0% ≤ substrate protein remaining % ≤80%) | A (0% ≤ substrate protein remaining % ≤80%) |
